Measured values as given in patent publication US9629855B2, “Pharmaceutical composition for treatment of eye pain, containing PGE2 synthesis inhibitor” (INDUSTRY-ACADEMIC COOPERATION FOUNDATION, YONSEI UNIVERSITY, priority 2011, dated 2017).

Legend:
[1] = tested on: patients having an ocular pain symptom; assay: Number of eye blinks after intraocular administration of PGE2 synthesis inhibitors to eye pain patients; assay type: in vivo, human; conditions: blinks for 5 min
Method: PGE2 synthesis inhibitors were administered intraocularly to patients having an ocular pain symptom, and whether the number of eye blinks of the patient group was reduced compared to that of a control group was examined. The PGE2 synthesis inhibitors used were 15-deoxy-Δ^12,14-PGJ2, exisulind, NS-398, leukotriene C4, mk-886, analogues of MK-886, MF63, thienopyrrole, naphthalene disulphonamide, resveratrol, and γ-hydroxybutenolide.
As a result, it was shown that, when the PGE synthesis inhibitors were administered intraocularly, they reduced ocular discomfort to thereby reduce the number of eye blinks (Table 2).

[2] = tested on: patients having an ocular pain symptom; assay: Number of eye blinks after intraocular administration of selective COX2 inhibitors to ocular pain patients; assay type: in vivo, human; conditions: control group = Diclofenac

Compound	Number of eye blinks of treated group (n = 10) for 5 min [1]	Number of eye blinks of treated group (n = 3) [2]
CCCCC/C=C/C=C1/C(=O)C=C[C@@H]1C/C=C\CCCC(=O)O [15-deoxy-Δ^12,14-PGJ2]	11	–
CC1=C(CC(=O)O)c2cc(F)ccc2/C1=C\c1ccc(S(C)(=O)=O)cc1 [Exisulind]	14	–
CCCCC/C=C\C\C=C/C=C/C=C/[C@@H](SC[C@H](NC(=O)CC[C@H](N)C(=O)O)C(=O)NCC(=O)O)[C@@H](O)CCCC(=O)O [Leukotriene C4]	17	–
Cc1cnc(NC(=O)C2=C(O)c3ccccc3S(=O)(=O)N2C)s1 [Meloxicam]	–	20
CS(=O)(=O)Nc1ccc([N+](=O)[O-])cc1OC1CCCCC1 [NS-398]	13	–
CS(=O)(=O)Nc1ccc([N+](=O)[O-])cc1Oc1ccccc1 [Nimesulud]	–	16
Oc1ccc(C=Cc2cc(O)cc(O)c2)cc1 [Resveratrol]	17	–
CCN1CC/C(=C\c2cc(C(C)(C)C)c(O)c(C(C)(C)C)c2)S1(=O)=O [S-2474, 3,5-di-tert-buryl-4-hydroxybenzylidene]	–	15
c1cc2sccc2[nH]1 [Thienopyrrole]	13	–
CC(C)c1ccc2c(c1)c(SC(C)(C)C)c(CC(C)(C)C(=O)O)n2Cc1ccc(Cl)cc1 [mk-886]	15	–
